Source: patent EP1910527B1, “MALTOSE-1-PHOSPHATE-PRODUCING ENZYME” (Kao Corporation, priority 2005, dated 2007)

Experiments:
M-1-P-producing enzyme [1] = test: Maltose transfer reaction without phosphate, HPLC analysis of products; format: biochemical, Corynebacterium glutamicum JCM1321; settings: 2.0% substrate, 0.16 U/mL enzyme, one hour at 37°C
Method: As substrates, 2% dextrin MAX 1000 (Matsutani Chemical) and 1M phosphate buffer (pH 7) were employed. To the substrates, a suitably diluted enzyme was added, and the mixture was incubated for one hour at 37°C, followed by quantification of the produced […] through HPLC. Specifically, quantification of […] was performed through use of a DX500 chromatography system (product of DIONEX Corporation) (column: CarboPac PA1 (4x250 mm), detector: ED40 pulsed amperometric detector, eluent: (solution A) 100mM sodium hydroxide; (solution B) 100mM sodium hydroxide containing 1M sodium acetate). Linear gradient analysis was employed (initial concentration: solution.A 90% : solution B 10%, 0-17 min.: solution A 18.5% : solution B 81.5%). As standard substances, 100mM and 50mM […] products (product of SIGMA) were employed. […] One enzyme unit (1U) is defined as the amount of enzyme that produces 1 μM of […] per minute. 0.16 U/mL […]-producing enzyme was allowed to react with each of the substrates having different chain lengths (glucose, maltose, maltotriose, maltotetraose, maltopentaose, maltohexaose (Seikagaku Corporation)) (2.0%) for one hour at 37°C, and the reaction mixture was subjected to HPLC for analysis in a manner similar to that described in Example 1 (the results are represented as peak area). The retention times of maltooligosaccharides (DP=1 to 11) were estimated through analysis of dextrin (Matsutani Chemical).

M-1-P-producing enzyme [2] = test: Substrate specificity: production of M-1-P from phosphate and saccharide substrates, HPLC quantification; format: biochemical, Corynebacterium glutamicum JCM1321; settings: 2.5% substrate, 250mM phosphate buffer (pH 7), 0.16 U/mL enzyme, 15 hours at 37°C
Method: As substrates, 2% dextrin MAX 1000 (Matsutani Chemical) and 1M phosphate buffer (pH 7) were employed. To the substrates, a suitably diluted enzyme was added, and the mixture was incubated for one hour at 37°C, followed by quantification of the produced […] through HPLC. Specifically, quantification of […] was performed through use of a DX500 chromatography system (product of DIONEX Corporation) (column: CarboPac PA1 (4x250 mm), detector: ED40 pulsed amperometric detector, eluent: (solution A) 100mM sodium hydroxide; (solution B) 100mM sodium hydroxide containing 1M sodium acetate). Linear gradient analysis was employed (initial concentration: solution.A 90% : solution B 10%, 0-17 min.: solution A 18.5% : solution B 81.5%). As standard substances, 100mM and 50mM […] products (product of SIGMA) were employed. […] One enzyme unit (1U) is defined as the amount of enzyme that produces 1 μM of […] per minute. To 2.5% Dextrin MAX 1000 (Matsutani Chemical) and 250mM phosphate buffer (pH 7), 0.16 U/mL M-1-P-producing enzyme was added, and the mixture was allowed to react for 15 hours at 37°C. In a manner similar to that described in Example 1, […] was quantified. […] To 250mM Phosphate buffer (pH 7) and each of substrates having different chain lengths (glucose, maltose, maltotriose, maltotetraose, maltopentaose, maltohexaose (Seikagaku Corporation)) (2.5%), 0.16 U/mL M-1-P-producing enzyme was added, and the mixture was allowed to react for 15 hours at 37°C. In a manner similar to that described in Example 1, […] was quantified.

| SMILES | Product (Peak area x 10^6): DP=3 (M-1-P-producing enzyme [1]) | Product (Peak area x 10^6): DP=4 (M-1-P-producing enzyme [1]) | Product (Peak area x 10^6): DP=5 (M-1-P-producing enzyme [1]) | Product (Peak area x 10^6): DP=6 (M-1-P-producing enzyme [1]) | Product (Peak area x 10^6): DP=7 (M-1-P-producing enzyme [1]) | Product (Peak area x 10^6): DP=8 (M-1-P-producing enzyme [1]) | Product (Peak area x 10^6): DP=9 (M-1-P-producing enzyme [1]) | Product (Peak area x 10^6): DP=10 (M-1-P-producing enzyme [1]) | Product (Peak area x 10^6): DP=11 (M-1-P-producing enzyme [1]) | Product (Peak area x 10^6): Glucose (M-1-P-producing enzyme [1]) | Product (Peak area x 10^6): Maltose (M-1-P-producing enzyme [1]) | Amount of maltose-1-phosphate produced (M-1-P-producing enzyme [2]) |
| --- | --- | --- | --- | --- | --- | --- | --- | --- | --- | --- | --- | --- |
| OC[C@H]1OC(O)[C@H](O)[C@@H](O)[C@@H]1O (some centres unmarked) [Glucose] | 0.00 x 10^6 | 0.00 x 10^6 | 0.00 x 10^6 | 0.00 x 10^6 | 0.00 x 10^6 | 0.00 x 10^6 | 0.00 x 10^6 | 0.00 x 10^6 | 0.00 x 10^6 | 65.97 x 10^6 | 0.00 x 10^6 |  |
| OC[C@H]1O[C@H](O[C@H]2[C@H](O)[C@@H](O)C(O)O[C@@H]2CO)[C@H](O)[C@@H](O)[C@@H]1O (mixture of isomers) [Maltose] | 0.27 x 10^6 | 0.00 x 10^6 | 0.00 x 10^6 | 0.00 x 10^6 | 0.00 x 10^6 | 0.00 x 10^6 | 0.00 x 10^6 | 0.00 x 10^6 | 0.00 x 10^6 | 0.19 x 10^6 | 46.79 x 10^6 |  |
| OC[C@H]1O[C@H](O[C@H]2[C@H](O)[C@@H](O)[C@@H](O[C@H]3[C@H](O)[C@@H](O)[C@@H](O[C@H]4[C@H](O)[C@@H](O)[C@@H](O[C@H]5[C@H](O)[C@@H](O)[C@@H](O[C@H]6[C@H](O)[C@@H](O)[C@@H](O[C@H]7[C@H](O)[C@@H](O)C(O)O[C@@H]7CO)O[C@@H]6CO)O[C@@H]5CO)O[C@@H]4CO)O[C@@H]3CO)O[C@@H]2CO)[C@H](O)[C@@H](O)[C@@H]1O (some centres unmarked) [Maltoheptaose] | 0.12 x 10^6 | 0.19 x 10^6 | 9.59 x 10^6 | 0.00 x 10^6 | 6.36 x 10^6 | 0.00 x 10^6 | 3.42 x 10^6 | 0.00 x 10^6 | 3.47 x 10^6 | 0.11 x 10^6 | 0.28 x 10^6 | 96.1 µM |

Next, values leading:

| Product (Peak area x 10^6): DP=3 (M-1-P-producing enzyme [1]) | Product (Peak area x 10^6): DP=4 (M-1-P-producing enzyme [1]) | Product (Peak area x 10^6): DP=5 (M-1-P-producing enzyme [1]) | Product (Peak area x 10^6): DP=6 (M-1-P-producing enzyme [1]) | Product (Peak area x 10^6): DP=7 (M-1-P-producing enzyme [1]) | Product (Peak area x 10^6): DP=8 (M-1-P-producing enzyme [1]) | Product (Peak area x 10^6): DP=9 (M-1-P-producing enzyme [1]) | Product (Peak area x 10^6): DP=10 (M-1-P-producing enzyme [1]) | Product (Peak area x 10^6): DP=11 (M-1-P-producing enzyme [1]) | Product (Peak area x 10^6): Glucose (M-1-P-producing enzyme [1]) | Product (Peak area x 10^6): Maltose (M-1-P-producing enzyme [1]) | Amount of maltose-1-phosphate produced (M-1-P-producing enzyme [2]) | SMILES |
| --- | --- | --- | --- | --- | --- | --- | --- | --- | --- | --- | --- | --- |
| 0.51 x 10^6 | 0.58 x 10^6 | 26.40 x 10^6 | 0.00 x 10^6 | 0.52 x 10^6 | 0.00 x 10^6 | 0.00 x 10^6 | 0.00 x 10^6 | 0.00 x 10^6 | 0.09 x 10^6 | 0.27 x 10^6 | 1.04 µM | OC[C@H]1O[C@H](O[C@H]2[C@H](O)[C@@H](O)[C@@H](O[C@H]3[C@H](O)[C@@H](O)[C@@H](O[C@H]4[C@H](O)[C@@H](O)[C@@H](O[C@H]5[C@H](O)[C@@H](O)C(O)O[C@@H]5CO)O[C@@H]4CO)O[C@@H]3CO)O[C@@H]2CO)[C@H](O)[C@@H](O)[C@@H]1O (some centres unmarked) [Maltopentaose] |
| 0.37 x 10^6 | 10.20 x 10^6 | 0.00 x 10^6 | 8.87 x 10^6 | 0.00 x 10^6 | 5.04 x 10^6 | 0.00 x 10^6 | 3.96 x 10^6 | 0.00 x 10^6 | 0.05 x 10^6 | 0.61 x 10^6 | 49.6 µM | OC[C@H]1O[C@H](O[C@H]2[C@H](O)[C@@H](O)[C@@H](O[C@H]3[C@H](O)[C@@H](O)[C@@H](O[C@H]4[C@H](O)[C@@H](O)[C@@H](O[C@H]5[C@H](O)[C@@H](O)[C@@H](O[C@H]6[C@H](O)[C@@H](O)C(O)O[C@@H]6CO)O[C@@H]5CO)O[C@@H]4CO)O[C@@H]3CO)O[C@@H]2CO)[C@H](O)[C@@H](O)[C@@H]1O (some centres unmarked) [Maltohexaose] |
| 1.25 x 10^6 | 30.80 x 10^6 | 0.00 x 10^6 | 0.36 x 10^6 | 0.00 x 10^6 | 0.00 x 10^6 | 0.00 x 10^6 | 0.00 x 10^6 | 0.00 x 10^6 | 0.19 x 10^6 | 0.15 x 10^6 |  | OC[C@H]1O[C@H](O[C@H]2[C@H](O)[C@@H](O)[C@@H](O[C@H]3[C@H](O)[C@@H](O)[C@@H](O[C@H]4[C@H](O)[C@@H](O)C(O)O[C@@H]4CO)O[C@@H]3CO)O[C@@H]2CO)[C@H](O)[C@@H](O)[C@@H]1O (some centres unmarked) [Maltotetraose] |
| 33.27 x 10^6 | 0.12 x 10^6 | 0.00 x 10^6 | 0.00 x 10^6 | 0.00 x 10^6 | 0.00 x 10^6 | 0.00 x 10^6 | 0.00 x 10^6 | 0.00 x 10^6 | 0.52 x 10^6 | 1.84 x 10^6 |  | OC[C@H]1O[C@H](O[C@H]2[C@H](O)[C@@H](O)[C@@H](O[C@H]3[C@H](O)[C@@H](O)C(O)O[C@@H]3CO)O[C@@H]2CO)[C@H](O)[C@@H](O)[C@@H]1O (some centres unmarked) [Maltotriose] |
